# Test results published in US10047051B2, “Substituted pyridines and method of use” (AbbVie S.á{acute over (.)}r.l., priority 2015, dated 2018).
# pEC50: −log10 of the molar value.
# What was measured:
# CFTR ΔF508 mutant = target: T1, CFTR ΔF508 mutant (Homo sapiens, UniProt P13569, DEL508-508); experiment: YFP-halide influx assay for the CFTR-ΔF508 mutation (CFBE41o- cells); format: cell-based; conditions: forskolin 10.67 μM; for pEC50: from (1−F/F0) vs concentration plot
# T1 construct: expressed in transfected cells; host or cells: CFBE41o- cells, adenoviral transduction
# How it was run: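 EC50 derived from plotting 1−F/F0 (fluorescence 36 s after iodide injection over pre-injection value) against compound concentration. Cells: CFBE41o- transduced with ΔF508-CFTR and YFP quench reporter, corrected 24 h at 27° C or by a CFTR modulator at 37° C.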
# CFTR G551D mutant = target: T2, CFTR G551D mutant (Homo sapiens, UniProt P13569, G551D); experiment: YFP-halide influx assay for the CFTR-G551D mutation (HEK293 cells); format: cell-based; conditions: forskolin 10.67 μM
# T2 construct: expressed in transfected cells; host or cells: HEK293 cells, reverse transfection with plasmids
# How it was run: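 Channel opening read as I⁻-driven quenching of a YFP H148Q/I152L/F47L reporter over 7 s post-injection, expressed as 1−F/F0 and fitted against concentration for EC50. Cells were HEK293 co-transfected at seeding with G551D CFTR plus reporter, then grown 24 h at 37 °C, 5% CO2.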
# T2 sequence (P13569 whole entry G551D): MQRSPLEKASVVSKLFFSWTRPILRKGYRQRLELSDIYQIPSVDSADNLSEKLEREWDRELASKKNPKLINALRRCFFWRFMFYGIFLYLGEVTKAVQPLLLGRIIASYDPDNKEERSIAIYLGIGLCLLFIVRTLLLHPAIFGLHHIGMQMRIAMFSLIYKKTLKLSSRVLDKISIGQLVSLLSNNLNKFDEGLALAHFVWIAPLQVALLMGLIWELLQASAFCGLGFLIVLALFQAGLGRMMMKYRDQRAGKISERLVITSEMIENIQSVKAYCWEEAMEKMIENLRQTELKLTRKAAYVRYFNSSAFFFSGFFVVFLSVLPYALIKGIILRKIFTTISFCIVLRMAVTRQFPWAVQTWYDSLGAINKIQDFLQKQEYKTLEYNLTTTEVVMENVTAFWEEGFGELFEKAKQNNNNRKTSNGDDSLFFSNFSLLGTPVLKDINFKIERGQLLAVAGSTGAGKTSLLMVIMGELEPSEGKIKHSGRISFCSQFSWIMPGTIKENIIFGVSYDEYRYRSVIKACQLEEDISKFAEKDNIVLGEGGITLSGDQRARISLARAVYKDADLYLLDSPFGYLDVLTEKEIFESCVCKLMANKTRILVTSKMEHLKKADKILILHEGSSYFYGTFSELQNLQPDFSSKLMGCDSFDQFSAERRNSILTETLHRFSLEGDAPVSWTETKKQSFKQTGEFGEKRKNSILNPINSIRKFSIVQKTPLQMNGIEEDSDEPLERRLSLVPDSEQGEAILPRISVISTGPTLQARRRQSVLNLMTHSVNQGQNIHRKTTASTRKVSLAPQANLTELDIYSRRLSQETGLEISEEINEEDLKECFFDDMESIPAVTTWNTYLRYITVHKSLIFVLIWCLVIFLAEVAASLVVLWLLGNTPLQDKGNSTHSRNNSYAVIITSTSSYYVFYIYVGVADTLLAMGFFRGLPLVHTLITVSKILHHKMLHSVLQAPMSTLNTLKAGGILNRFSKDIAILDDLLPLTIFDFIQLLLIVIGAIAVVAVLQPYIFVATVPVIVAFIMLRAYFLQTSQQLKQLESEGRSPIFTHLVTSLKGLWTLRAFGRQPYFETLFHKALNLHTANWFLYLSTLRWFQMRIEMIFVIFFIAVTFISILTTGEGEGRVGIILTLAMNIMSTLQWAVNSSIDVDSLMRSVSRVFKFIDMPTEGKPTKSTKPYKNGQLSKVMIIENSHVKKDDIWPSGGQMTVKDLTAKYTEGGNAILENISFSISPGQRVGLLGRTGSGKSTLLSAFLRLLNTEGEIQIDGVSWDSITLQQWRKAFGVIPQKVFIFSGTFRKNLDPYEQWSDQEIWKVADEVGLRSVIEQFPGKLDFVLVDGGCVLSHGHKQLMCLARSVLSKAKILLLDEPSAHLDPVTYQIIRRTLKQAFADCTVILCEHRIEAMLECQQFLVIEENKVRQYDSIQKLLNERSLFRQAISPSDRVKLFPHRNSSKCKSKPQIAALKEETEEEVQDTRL
# T1 sequence (P13569 with tags, fused parts or gaps DEL508-508): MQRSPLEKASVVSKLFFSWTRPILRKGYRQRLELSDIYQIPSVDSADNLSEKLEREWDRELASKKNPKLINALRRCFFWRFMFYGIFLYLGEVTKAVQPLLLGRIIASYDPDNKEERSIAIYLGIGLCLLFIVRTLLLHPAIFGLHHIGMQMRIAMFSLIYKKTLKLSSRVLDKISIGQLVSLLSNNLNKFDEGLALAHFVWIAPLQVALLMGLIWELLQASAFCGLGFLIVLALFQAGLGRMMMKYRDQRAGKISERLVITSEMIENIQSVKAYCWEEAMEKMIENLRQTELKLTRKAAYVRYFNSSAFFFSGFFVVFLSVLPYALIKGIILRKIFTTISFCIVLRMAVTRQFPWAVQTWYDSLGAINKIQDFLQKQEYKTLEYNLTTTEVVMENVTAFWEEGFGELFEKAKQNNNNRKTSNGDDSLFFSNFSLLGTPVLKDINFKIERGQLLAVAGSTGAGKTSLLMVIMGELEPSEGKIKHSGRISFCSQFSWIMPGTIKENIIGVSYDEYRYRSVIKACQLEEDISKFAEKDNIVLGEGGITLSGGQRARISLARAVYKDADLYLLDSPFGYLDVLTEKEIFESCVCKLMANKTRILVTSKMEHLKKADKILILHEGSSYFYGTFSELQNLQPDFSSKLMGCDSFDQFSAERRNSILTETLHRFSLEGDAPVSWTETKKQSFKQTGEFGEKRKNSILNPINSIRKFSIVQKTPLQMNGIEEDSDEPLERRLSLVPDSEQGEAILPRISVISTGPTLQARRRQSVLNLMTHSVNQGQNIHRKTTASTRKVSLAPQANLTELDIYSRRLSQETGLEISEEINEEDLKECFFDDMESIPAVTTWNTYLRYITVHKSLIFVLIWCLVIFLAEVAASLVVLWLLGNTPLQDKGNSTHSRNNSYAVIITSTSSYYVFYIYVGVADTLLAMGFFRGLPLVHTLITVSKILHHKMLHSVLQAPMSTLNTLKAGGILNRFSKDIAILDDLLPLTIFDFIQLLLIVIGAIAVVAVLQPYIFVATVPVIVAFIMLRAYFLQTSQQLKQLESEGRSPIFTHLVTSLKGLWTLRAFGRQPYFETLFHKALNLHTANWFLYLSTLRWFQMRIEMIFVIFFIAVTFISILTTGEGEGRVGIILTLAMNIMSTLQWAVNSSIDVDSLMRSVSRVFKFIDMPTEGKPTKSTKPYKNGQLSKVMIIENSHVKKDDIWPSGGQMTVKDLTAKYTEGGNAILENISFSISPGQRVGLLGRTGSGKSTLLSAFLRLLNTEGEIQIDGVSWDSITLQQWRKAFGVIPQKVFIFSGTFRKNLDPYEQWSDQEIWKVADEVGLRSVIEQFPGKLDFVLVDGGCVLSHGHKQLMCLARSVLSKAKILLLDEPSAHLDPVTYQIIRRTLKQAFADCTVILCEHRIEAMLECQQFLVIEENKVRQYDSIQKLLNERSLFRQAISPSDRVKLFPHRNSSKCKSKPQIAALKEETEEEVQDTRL
SMILES,% Activation (CFTR ΔF508 mutant) [%],pEC50 (CFTR ΔF508 mutant),% Activation (CFTR G551D mutant) [%],pEC50 (CFTR G551D mutant)
"Nc1cc(S(=O)(=O)c2ccc(OC(F)(F)F)cc2)cnc1C(=O)NCC1CCCOC1 (centres unmarked) [Compound 143, 3-amino-N-(tetrahydro-2H-pyran-3-ylmethyl)-5-{[4-(trifluoromethoxy)phenyl]sulfonyl}pyridine-2-carboxamide]",91.4,6.87,80.6,5.64
"Nc1cc(S(=O)(=O)c2ccc(OC(F)(F)F)cc2)cnc1C(=O)N[C@H]1CCOC1 [Compound 144, 3-amino-N-[(3S)-tetrahydrofuran-3-yl]-5-{[4-(trifluoromethoxy)phenyl]sulfonyl}pyridine-2-carboxamide]",92.6,7.12,50.6,5.95
"Nc1cc(S(=O)(=O)c2ccc(OC(F)(F)F)cc2)cnc1C(=O)N[C@@H]1CCOc2ccccc21 [Compound 145, 3-amino-N-[(4R)-3,4-dihydro-2H-chromen-4-yl]-5-{[4-(trifluoromethoxy)phenyl]sulfonyl}pyridine-2-carboxamide]",98.8,6.69,53.9,6.08
"Nc1cc(S(=O)(=O)c2ccc(OC(F)(F)F)cc2)cnc1C(=O)NC1CCOCC1 [Compound 146, 3-amino-N-(tetrahydro-2H-pyran-4-yl)-5-{[4-(trifluoromethoxy)phenyl]sulfonyl}pyridine-2-carboxamide]",88.4,7.04,58.4,5.51
"Nc1cc(S(=O)(=O)c2ccc(OC(F)(F)F)cc2)cnc1C(=O)NCCC1OCCO1 [Compound 147, 3-amino-N-[2-(1,3-dioxolan-2-yl)ethyl]-5-{[4-(trifluoromethoxy)phenyl]sulfonyl}pyridine-2-carboxamide]",105.5,7.39,69.0,5.89
"CC(C)[C@@H](CO)NC(=O)c1ncc(S(=O)(=O)c2ccc(OC(F)(F)F)cc2)cc1N [Compound 148, 3-amino-N-[(2S)-1-hydroxy-3-methylbutan-2-yl]-5-{[4-(trifluoromethoxy)phenyl]sulfonyl}pyridine-2-carboxamide]",88.8,7.37,60.2,6.29
"Nc1cc(S(=O)(=O)c2ccc(OC(F)(F)F)cc2)cnc1C(=O)NC1COC2(CCCCC2)C1 (centres unmarked) [Compound 149, 3-amino-N-(1-oxaspiro[4.5]dec-3-yl)-5-{[4-(trifluoromethoxy)phenyl]sulfonyl}pyridine-2-carboxamide]",91.2,6.75,42.7,< 5.78
"Nc1cc(S(=O)(=O)c2ccc(OC(F)(F)F)cc2)cnc1C(=O)NC1COC2(CCCC2)C1 (centres unmarked) [Compound 150, 3-amino-N-(1-oxaspiro[4.4]non-3-yl)-5-{[4-(trifluoromethoxy)phenyl]sulfonyl}pyridine-2-carboxamide]",116.0,6.45,49.7,5.97
"Nc1cc(S(=O)(=O)c2ccc(OC(F)(F)F)cc2)cnc1C(=O)NC1COC1 [Compound 151, 3-amino-N-(oxetan-3-yl)-5-{[4-(trifluoromethoxy)phenyl]sulfonyl}pyridine-2-carboxamide]",16.9,< 6.00,3.0,< 5.30
"Nc1cc(S(=O)(=O)c2ccc(OC(F)(F)F)cc2)cnc1C(=O)NCCC1CC1 [Compound 152, 3-amino-N-(2-cyclopropylethyl)-5-{[4-(trifluoromethoxy)phenyl]sulfonyl}pyridine-2-carboxamide]",93.3,6.92,60.2,5.95
"Nc1cc(S(=O)(=O)c2ccc(OC(F)(F)F)cc2)cnc1C(=O)NCC1CC(F)(F)C1 [Compound 153, 3-amino-N-[(3,3-difluorocyclobutyl)methyl]-5-{[4-(trifluoromethoxy)phenyl]sulfonyl}pyridine-2-carboxamide]",105.0,7.12,47.6,6.12
